Results on one molecule are retold here after patent publication US12458650B2, “Urination disorder-improving agent” (ASKA Pharmaceutical Co., Ltd., priority 2019, dated 2025).

SMILES strings stand for the structures.

Data set [1] deals with lower urinary tract obstruction model of rats. The data set can be described thus: Test Example 1: urination function in female rat lower urinary tract obstruction model (cystometry, tissue wet weights, survival). Format: in vivo. To be noted: Group A: 10 mg/kg oral once a day, 2 weeks. An excerpt:
A lower urinary tract obstruction model of rats was used as a test system. A test substance was orally administered to the lower urinary tract obstruction model repeatedly over two (2) weeks to examine the action on the urination function in the lower urinary tract obstruction model.
More specifically, the rats (female, Crl:CD(SD), 8-week-old; Charles River Laboratories Japan, Inc.) were operated to form lower urinary tract obstruction and repeatedly received oral administration of the test substance at a frequency of once a day over two (2) weeks. After the completion of the administration, each rat was subjected to bladder catheterization under anesthesia, cystometry under no anesthesia, then cystometry under urethane anesthesia, and euthanasia under deep anesthesia, and the tissues (bladder, kidney) of the rat were extracted or surgically removed. As a normal group, the rats without operation for forming lower urinary tract obstruction were used.
The test system, the test substances, and the dosage are as follows. • Normal group: 0.5 v/v. Polysorbate 80 solution, 10 mL/kg (n=6) • Solvent group (control group): 0.5 v/v % Polysorbate 80 solution, 10 mL/kg (n=15) • Group A: Compound A, 10 mg/kg (n=15) • Group B3: Compound B, 3 mg/kg (n=7) • Group B10: Compound B, 10 mg/kg (n=7)
The residual urine volume, the urination efficiency, and the bladder capacity were measured as follows.
After urination, the residual urine was aspirated from the outlet end of the catheter placed in the bladder to measure the volume (mL) of the residual urine.
After urination, the weight of the voided urine was measured to determine the voided volume (g=mL), and then the urination efficiency was calculated by the following equation: Urination efficiency (%)=[(Voided volume (mL))/(Voided volume (mL)+Residual urine volume (mL))]×100 [Bladder Capacity]
The bladder capacity was calculated from the voided volume and the residual urine volume by the following equation: Bladder capacity(mL)=Voided volume (mL)+Residual urine volume (mL)
Moreover, the wet weight of the extracted bladder and that of the extracted kidney were measured.

The test system is the same in data set [2]. Description: Test Example 2: urination function in male rat lower urinary tract obstruction model (cystometry under no anesthesia). Format: in vivo. The conditions noted are these: Group A: 10 mg/kg oral once a day, 14 days, in comparison with Group C (dutasteride 0.5 mg/kg), FIG. 7, 8. An excerpt:
A lower urinary tract obstruction model of rats was used as a test system. A test substance was orally administered to the lower urinary tract obstruction model repeatedly over 14 days to examine the action on the urination function in the lower urinary tract obstruction model. The lower urinary tract obstruction model is not a benign prostatic hyperplasia model with enlarged prostate.
More specifically, the rats (male, Crl:CD(SD), 8-week-old; Charles River Laboratories Japan, Inc.) were operated to form lower urinary tract obstruction and repeatedly received oral administration of the test substance at a frequency of once a day over 14 days. After the completion of the administration, each rat was subjected to bladder catheterization under anesthesia and cystometry under no anesthesia and was evaluated for the residual urine volume and the urination efficiency.
The test substances and the dosage in the test system (male rats with lower urinary tract obstruction) are as follows. • Solvent group (control group): 0.5 v/v % Polysorbate 80 solution, 10 mL/kg (n=8) • Group A: Compound A, 10 mg/kg (n=12) • Group C: Compound C (dutasteride), 0.5 mg/kg (n=11) • Dutasteride is a 5a reductase inhibitor.

Data set [3] concerns model of a urination disorder associated with streptozocin-induced diabetes. Description: Test Example 6: urination disorder model associated with streptozocin-induced diabetes, compound A versus dutasteride. Type of data set: in vivo, rat. How it is done: As described below, a model of a urination disorder associated with streptozocin-induced diabetes was prepared as a urination disorder model in accordance with Test Example 4 to evaluate the effects of the compound A and the compound C on a urination disorder. This model has no benign prostatic hyperplasia and is a model of a urination disorder associated with neuropathy and smooth muscle contraction disorder.
The body weights of Rats (male, Crl:CD(SD), 5-week-old; Charles River Laboratories Japan, Inc.) were measured. On the basis of the body weight, the rats were grouped or divided into two (2) groups. The day after the rats were grouped, a fist group received intraperitoneal administration of a citrate buffer (pH 4.5) (10 mL/kg) having a concentration of 0.1 mmol/L, and a second group received intraperitoneal administration of streptozocin (STZ; Sigma-Aldrich) (50 mg/kg). Streptozocin (STZ) was administered in the form of a solution of streptozocin having a concentration of 5 mg/mL in the citrate buffer.
About one (1) week after streptozocin (STZ) was administered, the body weight and the fasting blood glucose were measured. In the streptozocin (STZ) administration group (the second group), individuals having a fasting blood glucose level of not less than 300 mg/dL were used as animals with induced diabetes. These animals with induced diabetes are a model having no abnormality of the prostate (having no benign prostatic hyperplasia). On the basis of the body weight and the fasting blood glucose level, the animals (models) with induced diabetes were grouped or divided into three (3) groups by randomized, multivariable block allocation.
To the three model groups with induced diabetes, a 0.5 v/v % Polysorbate 80 solution (0.5% P) (10 mL/kg), the compound A (3 mg/kg), and the compound C (dutasteride) (0.3 mg/kg) were orally administered, respectively, wherein the administration schedule in all groups was a frequency of once a day, only on weekdays, over four (4) weeks. Moreover, to the above-mentioned first group, a 0.5 v/v % Polysorbate 80 solution (0.5% P) (10 mL/kg) was orally administered in the same administration schedule (normal group). On the last day of administration, a cannula was inserted into and secured to the dome of the bladder under isoflurane anesthesia, and cystometry (Cystometogram, CMG) was conducted in the order of under awake condition and under urethane anesthesia to measure the intravesical pressure, the voided volume, and the residual urine volume. After the completion of the measurement, the blood was collected under deep isoflurane anesthesia, and then the prostate (ventral prostate, dorsolateral prostate) was extracted and each was weighed. Moreover, the blood glucose level in the collected blood was measured.
The test substances and the dosage in the test system (rats having the urination disorder associated with diabetes) are as follows. • Normal group: citrate buffer 10 mL/kg (intraperitoneal administration), 0.5% P 10 mL/kg (oral administration) (n=10) • Solvent group (control group): STZ 50 mg/kg (intraperitoneal administration), 0.5% P 10 mL/kg (oral administration) (n=10) • Group A3: STZ 50 mg/kg (intraperitoneal administration), Compound A 3 mg/kg (oral administration) (n=10) • Group C0.3: STZ 50 mg/kg (intraperitoneal administration), Compound C (dutasteride) 0.3 mg/kg (oral administration) (n=10)
Urination parameter: In the same manner as in Test Example 4, the residual urine volume (mL) and the urination efficiency % were determined as urination parameters in each urination, and the average value of two measurements was taken as a measured value of each individual.
Prostate weight: In the same manner as in Test Example 4, the weight of the prostate (ventral prostate, dorsolateral prostate, and whole) was converted to a tissue weight per 100 g of the body weight. […]

Where [4] appears, read: Group A3: 3 mg/kg oral, 4 weeks, relative to solvent group.

As for `CC(=O)O[C@]1(C(C)=O)C[C@@H](O)[C@H]2[C@@H]3C=C(Cl)C4=CC(=O)OC[C@]4(C)[C@H]3CC[C@@]21C` [Compound A, 17α-acetoxy-6-chloro-15β-hydroxy-2-oxa-4,6-pregnadiene-3,20-dione], the bladder wet weight result in data set [1] (FIG. 4) was “significantly inhibiting the increase”. Besides, in data set [1] (FIG. 5), the kidney wet weight result is recorded as “significantly inhibiting the increase”. The survival rate result in data set [1] (FIG. 6) was “no decrease”. In addition, in data set [1] (vs control (solvent) group, FIG. 1), the residual urine volume result was “significantly decreased”. In addition, the urination efficiency entry in data set [1] (vs control group, FIG. 2) is “increased”. The bladder capacity result in data set [1] (vs control group, FIG. 3) is “significantly decreased”. Further, the “urination function (the residual urine volume, the urination efficiency)” value in data set [2] is “strong improvement action”. In data set [3] (Group A3: 3 mg/kg oral, 4 weeks), the “therapeutic effect on diabetes (blood glucose level)” value is “no therapeutic effect on diabetes”. Moreover, in data set [3] (setting [4]), the “Dorsolateral prostate (atrophy rate)” value is on record as “(40.2%)”, the “Ventral prostate (atrophy rate)” value is “(40.0%)” and the “Whole prostate (atrophy rate)” value is “(40.1%)”. The residual urine volume entry in data set [3] (Group A3: 3 mg/kg, cystometry under awake condition, vs solvent group (p<0.05), FIG. 19) is “significantly decreased”. Also, the urination efficiency result in data set [3] (Group A3: 3 mg/kg, cystometry under awake condition, vs solvent group (p<0.05), FIG. 20) is recorded as “significantly improved”. In data set [3] (Group A3: 3 mg/kg, in comparison with the solvent group and Group C0.3, FIG. 21), the “bladder contraction force on urination by nomogram analysis” value is on record as “strong bladder contraction force”.
